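Test compounds were applied to cells in 96-well plates for 48 hours at 5 doses. Definition used: TGI = concentration required for complete inhibition of growth.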
What was measured:
Assay in all cases: NCI anticancer screen, dose series, 48 h
[1] = test system: NCI-H226 lung
[2] = test system: U251 CNS
[3] = test system: TK-10 renal
[4] = test system: HOP-18 NSCLC
[5] = test system: EKVX NSCLC
[6] = test system: SK-MEL-28 melanoma
[7] = test system: LOX IMVI melanoma
[8] = test system: UACC-62 melanoma
[9] = test system: HL-60(TB) leukemia
[10] = test system: DLD-1 colon
[11] = test system: OVCAR-5 ovarian
[12] = test system: MOLT-4 leukemia
[13] = test system: UO-31 renal
[14] = test system: SNB-75 CNS
[15] = test system: SNB-19 CNS
[16] = test system: SK-MEL-5 melanoma
[17] = test system: OVCAR-4 ovarian
[18] = test system: SR leukemia
[19] = test system: K-562 leukemia
[20] = test system: OVCAR-8 ovarian
[21] = test system: RXF 393 renal
[22] = test system: RPMI-8226 leukemia
[23] = test system: 786-0 renal
[24] = test system: DMS 114 small cell lung
[25] = test system: SK-OV-3 ovarian
[26] = test system: SF-539 CNS
[27] = test system: SF-295 CNS
[28] = test system: A549 NSCLC
[29] = test system: HT29 colon
[30] = test system: SF-268 CNS
[31] = test system: COLO 205 colon
[32] = test system: KM12 colon
[33] = test system: SW-620 colon
[34] = test system: RXF-631 renal
[35] = test system: M14 melanoma
[36] = test system: IGROV1 ovarian
[37] = test system: NCI-H23 lung
[38] = test system: SNB-78 CNS
[39] = test system: DMS 273 small cell lung
[40] = test system: M19-MEL melanoma
[41] = test system: CCRF-CEM leukemia
[42] = test system: ACHN renal
[43] = test system: OVCAR-3 ovarian
[44] = test system: HCT-15 colon
[45] = test system: MALME-3M melanoma
[46] = test system: SN12C renal
[47] = test system: HCT-116 colon
[48] = test system: LXFL 529 NSCLC
[49] = test system: HCC-2998 colon
[50] = test system: NCI-H460 lung
[51] = test system: NCI-H522 lung
[52] = test system: HOP-62 NSCLC
[53] = test system: UACC-257 melanoma
[54] = test system: SK-MEL-2 melanoma
[55] = test system: CAKI-1 renal
[56] = test system: HOP-92 NSCLC
[57] = test system: A498 renal
[58] = test system: KM20L2 colon

## O=C1C(c2ccccc2)=[N+]([O-])c2cc([N+](=O)[O-])c(/C(Cl)=C/c3ccccc3)cc21
[1]
  TGI: > 100 µM
[2]
  TGI: 39.7 µM
[3]
  TGI: 82.3 µM
[4]
  TGI: 75.5 µM
[5]
  TGI: 78.9 µM
[6]
  TGI: 61 µM
[7]
  TGI: 26.6 µM
[8]
  TGI: 83.4 µM
[9]
  TGI: 18.4 µM
[10]
  TGI: 45 µM
[11]
  TGI: 59.1 µM
[12]
  TGI: 49.2 µM
[13]
  TGI: > 100 µM
[14]
  TGI: 62.8 µM
[15]
  TGI: > 100 µM
[16]
  TGI: 44.4 µM
[17]
  TGI: 30.7 µM
[18]
  TGI: 53 µM
[19]
  TGI: 37.7 µM
[20]
  TGI: 34.2 µM
[21]
  TGI: 51.6 µM
[22]
  TGI: 42.5 µM
[23]
  TGI: 82.9 µM
[24]
  TGI: 22.9 µM
[25]
  TGI: > 100 µM
[26]
  TGI: 54.8 µM
[27]
  TGI: > 100 µM
[28]
  TGI: > 100 µM
[29]
  TGI: 58.2 µM
[30]
  TGI: > 100 µM
[31]
  TGI: 31 µM
[32]
  TGI: 59.8 µM
[33]
  TGI: 31.1 µM
[34]
  TGI: 21.4 µM
[35]
  TGI: 40.9 µM
[36]
  TGI: 57.5 µM
[37]
  TGI: 60.1 µM
[38]
  TGI: 96.9 µM
[39]
  TGI: 37.2 µM
[40]
  TGI: 28.9 µM
[41]
  TGI: 40.3 µM
[42]
  TGI: 94.4 µM
[43]
  TGI: 27 µM

## O=C1OC(CC(=O)c2ccccc2Cl)C(Cl)=C1Cl (centres undefined)
[1]
  TGI: > 100 µM
[2]
  TGI: > 100 µM
[3]
  TGI: > 100 µM
[4]
  TGI: > 100 µM
[5]
  TGI: > 100 µM
[6]
  TGI: > 100 µM
[7]
  TGI: > 100 µM
[44]
  TGI: > 100 µM
[8]
  TGI: > 100 µM
[9]
  TGI: > 100 µM
[10]
  TGI: > 100 µM
[11]
  TGI: > 100 µM
[45]
  TGI: > 100 µM
[12]
  TGI: > 100 µM
[13]
  TGI: > 100 µM
[15]
  TGI: > 100 µM
[16]
  TGI: > 100 µM
[46]
  TGI: > 100 µM
[17]
  TGI: > 100 µM
[47]
  TGI: > 100 µM
[18]
  TGI: > 100 µM
[19]
  TGI: > 100 µM
[48]
  TGI: > 100 µM
[49]
  TGI: > 100 µM
[20]
  TGI: > 100 µM
[50]
  TGI: > 100 µM
[21]
  TGI: > 100 µM
[22]
  TGI: > 100 µM
[23]
  TGI: > 100 µM
[24]
  TGI: > 100 µM
[25]
  TGI: > 100 µM
[26]
  TGI: > 100 µM
[51]
  TGI: > 100 µM
[52]
  TGI: > 100 µM
[53]
  TGI: > 100 µM
[27]
  TGI: > 100 µM
[54]
  TGI: > 100 µM
[28]
  TGI: > 100 µM
[29]
  TGI: > 100 µM
[30]
  TGI: > 100 µM
[31]
  TGI: > 100 µM
[32]
  TGI: > 100 µM
[33]
  TGI: > 100 µM
[34]
  TGI: > 100 µM
[55]
  TGI: > 100 µM
[35]
  TGI: > 100 µM
[36]
  TGI: > 100 µM
[56]
  TGI: > 100 µM
[37]
  TGI: > 100 µM
[38]
  TGI: > 100 µM
[40]
  TGI: > 100 µM
[41]
  TGI: > 100 µM
[42]
  TGI: > 100 µM
[43]
  TGI: > 100 µM

## COc1cccc(CC(C)N)c1 (centres undefined)
[1]
  TGI: > 100 µM
[2]
  TGI: > 100 µM
[3]
  TGI: > 100 µM
[4]
  TGI: > 100 µM
[5]
  TGI: > 100 µM
[6]
  TGI: > 100 µM
[7]
  TGI: > 100 µM
[44]
  TGI: > 100 µM
[8]
  TGI: > 100 µM
[9]
  TGI: > 100 µM
[10]
  TGI: > 100 µM
[11]
  TGI: > 100 µM
[45]
  TGI: > 100 µM
[57]
  TGI: > 100 µM
[12]
  TGI: > 100 µM
[13]
  TGI: > 100 µM
[14]
  TGI: > 100 µM
[15]
  TGI: > 100 µM
[16]
  TGI: > 100 µM
[46]
  TGI: > 100 µM
[17]
  TGI: > 100 µM
[47]
  TGI: > 100 µM
[18]
  TGI: > 100 µM
[19]
  TGI: > 100 µM
[48]
  TGI: > 100 µM
[49]
  TGI: > 100 µM
[20]
  TGI: > 100 µM
[50]
  TGI: > 100 µM
[21]
  TGI: > 100 µM
[22]
  TGI: > 100 µM
[23]
  TGI: > 100 µM
[24]
  TGI: > 100 µM
[25]
  TGI: > 100 µM
[26]
  TGI: > 100 µM
[51]
  TGI: > 100 µM
[52]
  TGI: > 100 µM
[53]
  TGI: > 100 µM
[27]
  TGI: > 100 µM
[54]
  TGI: > 100 µM
[28]
  TGI: > 100 µM
[29]
  TGI: > 100 µM
[30]
  TGI: > 100 µM
[31]
  TGI: > 100 µM
[32]
  TGI: > 100 µM
[33]
  TGI: > 100 µM
[34]
  TGI: > 100 µM
[55]
  TGI: > 100 µM
[35]
  TGI: > 100 µM
[36]
  TGI: > 100 µM
[56]
  TGI: > 100 µM
[37]
  TGI: > 100 µM
[38]
  TGI: > 100 µM
[39]
  TGI: > 100 µM
[41]
  TGI: > 100 µM
[42]
  TGI: > 100 µM
[43]
  TGI: > 100 µM
[58]
  TGI: > 100 µM
